Experiments:
Format in all cases: physicochemical
[1] = Colour of solution by visible spectrophotometry on storage (Example 3); settings: 5% w/v solution in water
Summary of the method: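 5% w/v aqueous solution, absorbance at 420 nm in a 1 cm silica cell. Samples were stored in argon-flushed brown opaque HDPE bottles at 25° C./60% RH, 40° C./75% RH and 60° C.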

[2] = Stability indicating HPLC assay and related substances on storage (Example 3)
[3] = Visual appearance on storage (Example 3)
Summary of the method: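 Aliquots (900 mg) kept at 2-8 °C beforehand were stored in argon-flushed brown opaque HDPE bottles at 25 °C/60% RH, 40 °C/75% RH and 60 °C. Visual appearance was assessed at set time points.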

[4] = Stability of M6G salts at room temperature over 6 years, HPLC; settings: for Assay M6G corr.: content calculated as M6G derivative
[5] = Water content by Karl Fisher analysis on storage (Example 3)
Summary of the method: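 900 mg aliquots were held in argon-flushed brown opaque HDPE bottles at 25 °C/60% RH, 40 °C/75% RH and 60 °C. At each time point, water content (% w/w) was determined in duplicate on about 100 mg of equilibrated material by Karl Fischer titration.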

## CN1CC[C@]23c4c5ccc(O)c4O[C@H]2[C@@H](O[C@@H]2O[C@H](C(=O)O)[C@@H](O)[C@H](O)[C@H]2O)C=C[C@H]3[C@H]1C5.Cl [Morphine-6-glucuronide hydrochloride]
[1]; 1 month, 25° C./60% RH
  Colour: 0.147 Abs@420 nm
[1]; 1 month, 40° C./75% RH
  Colour: 0.444 Abs@420 nm
[1]; 1 month, 60° C.
  Colour: 1.183 Abs@420 nm
[1]; 3 months, 25° C./60% RH
  Colour: 0.253 Abs@420 nm
[1]; 3 months, 40° C./75% RH
  Colour: 2.107 Abs@420 nm
[1]; Initial
  Colour: 0.059 Abs@420 nm
[2]; 1 month, 25° C./60% RH
  Known Related Substances HN33177: 0.63%
  Known Related Substances HN67003: 0.38%
  Known Related Substances HN75076: 0.04%
  Known Related Substances HN75083: 0.03%
  M6G Assay, Anhydrous basis: 92.03 % w/w
  M6G Assay, As is basis: 79.21 % w/w
  M6G Assay, Corrected for the salt form: 99.30 % w/w
  Total Known: 1.08%
  Total Related Substances: 2.41%
  Total Unknown: 1.33%
[2]; 1 month, 40° C./75% RH
  Known Related Substances HN33177: 0.41%
  Known Related Substances HN67003: 3.01%
  Known Related Substances HN75076: 0.34%
  Known Related Substances HN75083: 0.07%
  Known Related Substances Morphine: 0.08%
  M6G Assay, Anhydrous basis: 81.39 % w/w
  M6G Assay, As is basis: 69.13 % w/w
  M6G Assay, Corrected for the salt form: 87.81 % w/w
  Total Known: 3.91%
  Total Related Substances: 15.16%
  Total Unknown: 11.25%
[2]; 1 month, 60° C.
  Known Related Substances HN33177: 0.12%
  Known Related Substances HN67003: 3.55%
  Known Related Substances HN75076: 0.55%
  Known Related Substances HN75083: 0.03%
  Known Related Substances Morphine: 0.46%
  M6G Assay, Anhydrous basis: 75.78 % w/w
  M6G Assay, As is basis: 65.73 % w/w
  M6G Assay, Corrected for the salt form: 81.76 % w/w
  Total Known: 4.71%
  Total Related Substances: 20.94%
  Total Unknown: 16.23%
[2]; 3 months, 25° C./60% RH
  Known Related Substances HN33177: 0.50%
  Known Related Substances HN67003: 1.31%
  Known Related Substances HN75083: 0.03%
  Known Related Substances Morphine: 0.21%
  M6G Assay, Anhydrous basis: 87.71 % w/w
  M6G Assay, As is basis: 75.48 % w/w
  M6G Assay, Corrected for the salt form: 94.64 % w/w
  Total Known: 2.05%
  Total Related Substances: 9.52%
  Total Unknown: 7.47%
  decrease in assay compared to initial: around 6%
[2]; 3 months, 40° C./75% RH
  Known Related Substances HN33177: 0.07%
  Known Related Substances HN67003: 3.71%
  Known Related Substances HN75076: 1.67%
  Known Related Substances HN75083: 0.01%
  Known Related Substances Morphine: 1.55%
  M6G Assay, Anhydrous basis: 61.41 % w/w
  M6G Assay, As is basis: 51.00 % w/w
  M6G Assay, Corrected for the salt form: 66.26 % w/w
  Total Known: 7.01%
  Total Unknown: 51.57%
  drop in assay compared to the initial values: approx 34%
[2]; 3 months, 40° C./75% RH, hydrochloride
  Total Related Substances: 58.58%
[2]; 3 months, 40° C./75% RH, listed as hydrochloride, hydrochloride
  Total Related Substances: around 54.5%
[2]; 40° C./75% RH over 3 months (base also 60° C. over 1 month)
  stability assessment: least stable
[2]; Initial
  Known Related Substances HN33177: 0.63%
  Known Related Substances HN67003: 0.07%
  Known Related Substances HN75076: 0.01%
  Known Related Substances HN75083: 0.06%
  M6G Assay, Anhydrous basis: 93.28 % w/w
  M6G Assay, As is basis: 81.63 % w/w
  M6G Assay, Corrected for the salt form: 100.65 % w/w
  Total Known: 0.77%
  Total Related Substances: 1.24%
  Total Unknown: 0.47%
[2]; overall review of Example 3 data
  overall stability comparison: least stable
[3]; 1 month, 25° C./60% RH
  Appearance: White crystalline powder
[3]; 1 month, 40° C./75% RH
  Appearance: Slightly yellow crystalline powder
[3]; 1 month, 60° C.
  Appearance: Pale yellow crystalline powder
[3]; 3 months, 25° C./60% RH, hydrochloride
  Appearance: White crystalline powder
[3]; 3 months, 25° C./60% RH, listed as hydrochloride, hydrochloride
  Appearance: white crystalline solids
[3]; 3 months, 40° C./75% RH
  Appearance: Yellow crystalline powder
[3]; Initial
  Appearance: White crystalline powder
[4]; 0 years
  HN-33177: 0.3%
  HN-75083: <0.1%
  Unknown related substances (sum area %): <0.1 area %
  Assay M6G corr.: 88.7%
[4]; 6 years at ambient temperature
  HN-67002: 1.3%
  HN-67003: 2.1%
  Morphine: 0.2%
  Unknown related substances (sum area %): 9.2 area %
  Assay M6G corr.: 74.8%
[4]; 6 years at ambient temperature, hydrochloride
  HN-33177: 0.2%
[4]; 6 years at ambient temperature, listed as M6G.HCl, hydrochloride
  HN-33177: remained unchanged
[4]; almost 6 years at room temperature
  peaks present in the chromatogram that cannot be identified by retention time: 17
[5]; 1 month, 25° C./60% RH
  Moisture: 5.10 % w/w
[5]; 1 month, 40° C./75% RH
  Moisture: 6.24 % w/w
[5]; 1 month, 60° C.
  Moisture: 4.44 % w/w
[5]; 3 months, 25° C./60% RH
  Moisture: 6.06 % w/w
[5]; 3 months, 40° C./75% RH
  Moisture: 9.02 % w/w
[5]; Initial
  Moisture: 4.31 % w/w

Reference: patent US20060166900A1, “Salt of morphine-6-glucuronide” (CeNeS Limited, priority 2002, published 2006)
